US6808877B2, “Ligands for FPR class receptors that induce a host immune response to a pathogen or inhibit HIV infection” (priority 2000, dated 2004)
Where two headings read alike, the source gives them in different places.

Tests used:
monocytes [1] = assay: Ca2+ mobilization of monocytes in response to chemokines after preincubation (heterologous desensitization); assay type: cell-based, human; details: 37° C., 60 min
Procedure: Calcium mobilization was measured by incubating monocytes (2×10^7/ml) in loading medium (DMEM, 10% FCS) with 5 μM Fura-2 AM (Molecular Probes, Eugene, Oreg.) for 30 min at room temperature in the dark. The dye-loaded cells were washed 3 times and resuspended in saline buffer (138 mM NaCl, 6 mM KCl, 1 mM CaCl2, 10 mM Hepes pH 7.4, 5 mM glucose, 0.1% BSA). The cells were then transferred into quartz cuvettes (2×10^6 cells in 2 ml) which were placed in a luminescence spectrometer (LS-50B, Perkin-Elmer, Beaconsfield, UK). Stimulants at different concentrations were added in a volume of 20 μl to each cuvette at the indicated time points. The ratio of fluorescence at 340 and 380 nm was calculated using a FL-WinLab program (Perkin Elmer). To examine the effect of fMLP, monocytes were preincubated with 10^−6 M fMLP or with medium alone for 60 min at 37° C. The cells were thoroughly washed and then were stained with Fura-2 for the calcium mobilization desensitization. The results are representative of at least three experiments performed.
(§1) Calcium mobilization was measured by incubating 2×10^7/ml cells in loading medium (DMEM, 10% FBS) with 5 μM Fura-2 AM (Molecular Probes, Eugene, Oreg.) for 30 min at room temperature in the dark. The dye-loaded cells were washed 3 times with loading medium and resuspended in saline buffer [138 mM NaCl, 6 mM KCl, 1 mM CaCl2, 10 mM HEPES (pH 7.4), 5 mM Glucose, 0.1% BSA] at a concentration of 1×10^6/ml. The cells were then transferred into quartz cuvettes (2 ml) which were placed in a luminescence spectrometer (LS-50B, Perkin-Elmer, Beaconsfield, England). Stimulants at different concentrations were added in a volume of 20 μl to each cuvette at the indicated time points. The ratio of fluorescence at 340 and 380 nm wavelength was calculated using a FL WinLab program (Perkin-Elmer).

monocytes [2] = assay: Ca2+ mobilization in monocytes (Fura-2); assay type: cell-based, human
Procedure: as §1
(§2) Calcium mobilization was assayed by incubating 2×10^7/ml of monocytes, neutrophils, FPRL1 or FPR transfectants in loading buffer containing 138 mM NaCl, 6 mM KCl, 1 mM CaCl2, 10 mM HEPES (pH 7.4), 5 mM glucose, 0.1% BSA with 5 μM Fura-2 (Sigma) at 37° C. for 30 min. The dye-loaded cells were washed and resuspended in fresh loading buffer. The cells were then transferred into quartz cuvettes (10^6 cells in 2 ml) which were placed in a luminescence spectrometer LS50 B (Perkin-Elmer Limited, Beaconsfield, England). Stimulants at different concentrations were added in a volume of 20 μl to the cuvettes at indicated time points. The ratio of fluorescence at 340 and 380 nm wavelength was calculated using the FL WinLab program (Perkin-Elmer).

FPRL1 [3] = molecular target: T1, FPRL1 (Homo sapiens, UniProt P25090); assay type: cell-based
T1 construct: expressed in transfected cells; host or cells: HEK 293
T1 sequence (P25090 1-351): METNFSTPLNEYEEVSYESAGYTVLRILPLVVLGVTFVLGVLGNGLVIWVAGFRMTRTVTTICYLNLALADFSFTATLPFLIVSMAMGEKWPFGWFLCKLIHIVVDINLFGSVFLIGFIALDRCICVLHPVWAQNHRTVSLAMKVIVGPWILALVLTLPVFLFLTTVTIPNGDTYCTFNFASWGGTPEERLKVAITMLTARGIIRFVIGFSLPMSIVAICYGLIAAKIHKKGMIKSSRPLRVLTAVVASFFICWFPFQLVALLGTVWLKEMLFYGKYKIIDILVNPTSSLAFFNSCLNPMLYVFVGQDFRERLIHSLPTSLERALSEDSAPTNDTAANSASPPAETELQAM

FPRL1 [4] = molecular target: T1, FPRL1; assay: Ca2+ mobilization in FPRL1/293 cells; assay type: cell-based
Procedure: as §1, §2

Compound	cell response (Ca2+) to MCP-1 and fMLP after preincubation (monocytes [1]; 1.5 μM)	cell response (Ca2+) to RANTES and SDF-1α after preincubation (monocytes [1]; 1.5 μM)	Ca2+ mobilization (monocytes [2])	attenuation of the cell response to chemokines including SDF-1α on sequential stimulation (monocytes [2]; V3 peptide 1.5 μM)	migration / chemotaxis (FPRL1 [3]; FPRL1/293 cells)	Ca2+ mobilization (FPRL1 [4]; HEK293 cells transfected to express FPRL1)	Ca2+ flux in response to RANTES and MIP-1α after pretreatment (monocytes [1]; fMLP 10^−6 M)	response to W peptide (Ca2+ flux) (monocytes [2]; concentrations in the micromolar range)	signaling of V3 peptide on cross-desensitization (monocytes [2]; high concentration of fMLP (1 μM), V3 1.5 μM)	effect on W peptide-induced Ca2+ flux (monocytes [2]; low concentrations (nM range))	migration / chemotaxis (FPRL1 [3])	excess required to desensitize the effect of W peptide (Ca2+ flux) (FPRL1 [4]; FPRL1/293 cells)	minimal effective concentration to induce Ca2+ mobilization (FPRL1 [4]; FPRL1/293 cells, given as range in words)
TRPNYNKRKRIHIGPGRAFYTTKNIIGTIRQAH-NH2 [V3 peptide]	minimally affected	significantly reduced	mobilized Ca^2+	did not, however, attenuate	induced both Ca^2+ mobilization and chemotaxis	induced both Ca^2+ mobilization and chemotaxis							
CSCC[C@H](NC=O)C(=O)N[C@@H](CC(C)C)C(=O)N[C@@H](Cc1ccccc1)C(=O)O [fMLP, N-formyl-methionyl-leucyl-phenylalanine]							reduced Ca^2+ flux	significantly attenuated	attenuated	limited effect	failed to migrate	10^5 fold excess	μM range
